Reference: patent US20240000872A1, “NOVEL BACTERIOPHAGE THAT LYSES ACINETOBACTER GENUS BACTERIA HAVING RESISTANCE TO ANTIBIOTICS” (priority 2020, published 2024)

Tested on: Acinetobacter baumannii strains
Assay: Antibiotic susceptibility test (CLSI disk diffusion test method, read per CLSI 2016); on antibiotic susceptibility S/I/R: key: ‘S’ means susceptible; ‘I’ means intermediate; ‘R’ means resistant; on susceptibility category (S/I/R): key: ‘S’ means susceptible; ‘I’ means intermediate; ‘R’ means resistant
Type: cell-based
Design: antibiotic susceptibility test value / susceptibility test value (number given before S/I/R) / antibiotic susceptibility value: unit not given here

Substance: ampicillin-sulbactam
- antibiotic susceptibility value (host strain YMC16/01/R123): 32
- susceptibility category (S/I/R) (host strain YMC16/01/R123): R
- susceptibility test value (number given before S/I/R) (host strain YMC16/01/R123): 32
- antibiotic susceptibility S/I/R (host strain YMC16/01/R198): S
- antibiotic susceptibility value (host strain YMC16/01/R198): 8
- susceptibility category (S/I/R) (host strain YMC16/01/R198): S
- susceptibility test value (number given before S/I/R) (host strain YMC16/01/R198): 8
- antibiotic susceptibility value (host strain YMC16/01/R353): 16
- susceptibility category (S/I/R) (host strain YMC16/01/R353): I
- susceptibility test value (number given before S/I/R) (host strain YMC16/01/R353): 16
- antibiotic susceptibility S/I/R (host strain YMC16/01/R380): R
- antibiotic susceptibility value (host strain YMC16/01/R380): 32
- susceptibility category (S/I/R) (host strain YMC16/01/R380): R
- susceptibility test value (number given before S/I/R) (host strain YMC16/01/R380): 32
- antibiotic susceptibility S/I/R (host strain YMC16/01/R397): R
- antibiotic susceptibility value (host strain YMC16/01/R397): 32
- susceptibility category (S/I/R) (host strain YMC16/01/R397): R
- susceptibility test value (number given before S/I/R) (host strain YMC16/01/R397): 32
- antibiotic susceptibility value (host strain YMC16/01/R405): 16
- susceptibility category (S/I/R) (host strain YMC16/01/R405): I
- susceptibility test value (number given before S/I/R) (host strain YMC16/01/R405): 16
- antibiotic susceptibility S/I/R (host strain YMC16/03/R4461): S
- antibiotic susceptibility value (host strain YMC16/03/R4461): 4
- susceptibility category (S/I/R) (host strain YMC16/03/R4461): S
- susceptibility test value (number given before S/I/R) (host strain YMC16/03/R4461): 4
- antibiotic susceptibility value (host strain YMC16/05/R2210): 16
- susceptibility category (S/I/R) (host strain YMC16/05/R2210): I
- susceptibility test value (number given before S/I/R) (host strain YMC16/05/R2210): 16
- antibiotic susceptibility value (host strain YMC16/07/R2512): 16
- susceptibility category (S/I/R) (host strain YMC16/07/R2512): I
- susceptibility test value (number given before S/I/R) (host strain YMC16/07/R2512): 16
- antibiotic susceptibility S/I/R (host strain YMC16/09/R2471): R
- antibiotic susceptibility value (host strain YMC16/09/R2471): 32
- susceptibility category (S/I/R) (host strain YMC16/09/R2471): R
- susceptibility test value (number given before S/I/R) (host strain YMC16/09/R2471): 32
- antibiotic susceptibility value (host strain YMC16/10/R2537): 16
- susceptibility category (S/I/R) (host strain YMC16/10/R2537): I
- susceptibility test value (number given before S/I/R) (host strain YMC16/10/R2537): 16
- antibiotic susceptibility S/I/R (host strain YMC16/12/B11422): R
- antibiotic susceptibility value (host strain YMC16/12/B11422): 32
- susceptibility category (S/I/R) (host strain YMC16/12/B11422): R
- susceptibility test value (number given before S/I/R) (host strain YMC16/12/B11422): 32
- antibiotic susceptibility S/I/R (host strain YMC16/12/B11449): R
- antibiotic susceptibility value (host strain YMC16/12/B11449): 32
- susceptibility category (S/I/R) (host strain YMC16/12/B11449): R
- susceptibility test value (number given before S/I/R) (host strain YMC16/12/B11449): 32
- antibiotic susceptibility value (host strain YMC16/12/B13325): 16
- susceptibility category (S/I/R) (host strain YMC16/12/B13325): I
- susceptibility test value (number given before S/I/R) (host strain YMC16/12/B13325): 16
- antibiotic susceptibility S/I/R (host strain YMC16/12/P503): R
- antibiotic susceptibility value (host strain YMC16/12/P503): 32
- susceptibility category (S/I/R) (host strain YMC16/12/P503): R
- susceptibility test value (number given before S/I/R) (host strain YMC16/12/P503): 32
- antibiotic susceptibility S/I/R (host strain YMC16/12/R4637): R
- antibiotic susceptibility value (host strain YMC16/12/R4637): 32
- susceptibility category (S/I/R) (host strain YMC16/12/R4637): R
- susceptibility test value (number given before S/I/R) (host strain YMC16/12/R4637): 32
- antibiotic susceptibility S/I/R (host strain YMC17/01/B8053): S
- antibiotic susceptibility value (host strain YMC17/01/B8053): 8
- susceptibility category (S/I/R) (host strain YMC17/01/B8053): S
- susceptibility test value (number given before S/I/R) (host strain YMC17/01/B8053): 8
- antibiotic susceptibility value (host strain YMC17/01/B10087): 16
- susceptibility category (S/I/R) (host strain YMC17/01/B10087): I
- susceptibility test value (number given before S/I/R) (host strain YMC17/01/B10087): 16
- antibiotic susceptibility value (host strain YMC17/01/B12075): 16
- susceptibility category (S/I/R) (host strain YMC17/01/B12075): I
- susceptibility test value (number given before S/I/R) (host strain YMC17/01/B12075): 16
- antibiotic susceptibility S/I/R (host strain YMC17/01/B13454): R
- antibiotic susceptibility value (host strain YMC17/01/B13454): 32
- susceptibility category (S/I/R) (host strain YMC17/01/B13454): R
- susceptibility test value (number given before S/I/R) (host strain YMC17/01/B13454): 32
- antibiotic susceptibility value (host strain YMC17/01/P518): 16
- susceptibility category (S/I/R) (host strain YMC17/01/P518): I
- susceptibility test value (number given before S/I/R) (host strain YMC17/01/P518): 16
- antibiotic susceptibility S/I/R (host strain YMC17/01/R2812): R
- antibiotic susceptibility value (host strain YMC17/01/R2812): 32
- susceptibility category (S/I/R) (host strain YMC17/01/R2812): R
- susceptibility test value (number given before S/I/R) (host strain YMC17/01/R2812): 32
- antibiotic susceptibility S/I/R (host strain YMC17/02/B14): R
- antibiotic susceptibility value (host strain YMC17/02/B14): 32
- susceptibility category (S/I/R) (host strain YMC17/02/B14): R
- susceptibility test value (number given before S/I/R) (host strain YMC17/02/B14): 32
- antibiotic susceptibility value (host strain YMC17/02/B87): 16
- susceptibility category (S/I/R) (host strain YMC17/02/B87): I
- susceptibility test value (number given before S/I/R) (host strain YMC17/02/B87): 16
- antibiotic susceptibility S/I/R (host strain YMC17/02/B721): R
- antibiotic susceptibility value (host strain YMC17/02/B721): 32
- susceptibility category (S/I/R) (host strain YMC17/02/B721): R
- susceptibility test value (number given before S/I/R) (host strain YMC17/02/B721): 32
- antibiotic susceptibility S/I/R (host strain YMC17/02/B4039): R
- antibiotic susceptibility value (host strain YMC17/02/B4039): 32
- susceptibility category (S/I/R) (host strain YMC17/02/B4039): R
- susceptibility test value (number given before S/I/R) (host strain YMC17/02/B4039): 32
- antibiotic susceptibility S/I/R (host strain YMC17/02/B4520): R
- antibiotic susceptibility value (host strain YMC17/02/B4520): 32
- susceptibility category (S/I/R) (host strain YMC17/02/B4520): R
- susceptibility test value (number given before S/I/R) (host strain YMC17/02/B4520): 32
- antibiotic susceptibility S/I/R (host strain YMC17/02/B4864): S
- antibiotic susceptibility value (host strain YMC17/02/B4864): 2
- susceptibility category (S/I/R) (host strain YMC17/02/B4864): S
- susceptibility test value (number given before S/I/R) (host strain YMC17/02/B4864): 2
- antibiotic susceptibility value (host strain YMC17/02/B8414): 16
- susceptibility category (S/I/R) (host strain YMC17/02/B8414): I
- susceptibility test value (number given before S/I/R) (host strain YMC17/02/B8414): 16
- antibiotic susceptibility value (host strain YMC17/02/P523): 16
- susceptibility category (S/I/R) (host strain YMC17/02/P523): I
- susceptibility test value (number given before S/I/R) (host strain YMC17/02/P523): 16
- antibiotic susceptibility S/I/R (host strain YMC17/02/R541): R
- antibiotic susceptibility value (host strain YMC17/02/R541): 32
- susceptibility category (S/I/R) (host strain YMC17/02/R541): R
- susceptibility test value (number given before S/I/R) (host strain YMC17/02/R541): 32
- antibiotic susceptibility S/I/R (host strain YMC17/02/R2392): R
- antibiotic susceptibility value (host strain YMC17/02/R2392): 32
- susceptibility category (S/I/R) (host strain YMC17/02/R2392): R
- susceptibility test value (number given before S/I/R) (host strain YMC17/02/R2392): 32
- antibiotic susceptibility value (host strain YMC17/03/B4730): 16
- susceptibility category (S/I/R) (host strain YMC17/03/B4730): I
- susceptibility test value (number given before S/I/R) (host strain YMC17/03/B4730): 16
- antibiotic susceptibility S/I/R (host strain YMC17/03/B5000): R
- antibiotic susceptibility value (host strain YMC17/03/B5000): 32
- susceptibility category (S/I/R) (host strain YMC17/03/B5000): R
- susceptibility test value (number given before S/I/R) (host strain YMC17/03/B5000): 32
- antibiotic susceptibility S/I/R (host strain YMC17/03/P971): S
- antibiotic susceptibility value (host strain YMC17/03/P971): 8
- susceptibility category (S/I/R) (host strain YMC17/03/P971): S
- susceptibility test value (number given before S/I/R) (host strain YMC17/03/P971): 8
- antibiotic susceptibility value (host strain YMC17/03/R348): 16
- susceptibility category (S/I/R) (host strain YMC17/03/R348): I
- susceptibility test value (number given before S/I/R) (host strain YMC17/03/R348): 16
- antibiotic susceptibility S/I/R (host strain YMC17/03/R585): R
- antibiotic susceptibility value (host strain YMC17/03/R585): 32
- susceptibility category (S/I/R) (host strain YMC17/03/R585): R
- susceptibility test value (number given before S/I/R) (host strain YMC17/03/R585): 32
- antibiotic susceptibility S/I/R (host strain YMC17/03/R1888): S
- antibiotic susceptibility value (host strain YMC17/03/R1888): 8
- susceptibility category (S/I/R) (host strain YMC17/03/R1888): S
- susceptibility test value (number given before S/I/R) (host strain YMC17/03/R1888): 8
- antibiotic susceptibility value (host strain YMC17/03/R3279): 16
- susceptibility category (S/I/R) (host strain YMC17/03/R3279): I
- susceptibility test value (number given before S/I/R) (host strain YMC17/03/R3279): 16
- antibiotic susceptibility value (host strain YMC17/03/R4077): 16
- susceptibility category (S/I/R) (host strain YMC17/03/R4077): I
- susceptibility test value (number given before S/I/R) (host strain YMC17/03/R4077): 16
- antibiotic susceptibility value (host strain YMC17/03/R4607): 16
- susceptibility category (S/I/R) (host strain YMC17/03/R4607): I
- susceptibility test value (number given before S/I/R) (host strain YMC17/03/R4607): 16
- antibiotic susceptibility value (host strain YMC17/04/R488): 16
- susceptibility category (S/I/R) (host strain YMC17/04/R488): I
- susceptibility test value (number given before S/I/R) (host strain YMC17/04/R488): 16
- antibiotic susceptibility value (host strain YMC17/04/R640): 16
- susceptibility category (S/I/R) (host strain YMC17/04/R640): I
- susceptibility test value (number given before S/I/R) (host strain YMC17/04/R640): 16
- antibiotic susceptibility value (host strain YMC/17/05/R1095): 16
- susceptibility category (S/I/R) (host strain YMC/17/05/R1095): I
- susceptibility test value (number given before S/I/R) (host strain YMC/17/05/R1095): 16
